Experiments:
Type in all cases: in vivo
[1] = test system: smallflower flatsedge (Cyperus difformis); assay: Test B flood test; settings: for S. Flatsedge plant response rating: Rate 125 g/ha, Postemergence section (flood test species)
In short: (§1)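 Plants were grown to the 2-leaf stage before treatment with test chemical, then held in a greenhouse for twelve to sixteen days. Injury was visually rated against untreated controls on a 0–10 scale, where 0 is no effect and 10 is complete control.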

[2] = test system: duck salad (Heteranthera limosa); assay: Test B flood test
In short: as §1

rice (Oryza sativa) = assay: Test B flood test; settings: for Rice plant response rating: Rate 125 g/ha, Postemergence section (flood test species)
In short: as §1

[3] = test system: bamyardgrass (Echinochloa crus-galli); assay: Test B flood test
In short: as §1

[4] = test system: blackgrass (Alopecurus myosuroides); assay: Test B pre-/postemergence; set-up: key: 0 is no effect; 10 is complete control; settings: for Blackgrass plant response rating: Preemergence
In short: (§2)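 Seeds were planted and sprayed preemergence, while plants at 2 to 18 cm (1- to 4-leaf stage) were sprayed postemergence at the same time, with test chemical in a non-phytotoxic solvent mixture containing surfactant. After twelve to sixteen days in a greenhouse, injury was rated visually against untreated controls on a 0–10 scale.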

corn (Zea mays) = assay: Test B pre-/postemergence; set-up: key: 0 is no effect; 10 is complete control; settings: for Corn plant response rating: Preemergence
In short: as §2

[5] = test system: velvetleaf (Abutilon theophrasti); assay: Test B pre-/postemergence; set-up: key: 0 is no effect; 10 is complete control
In short: as §2

[6] = test system: wheat (Triticum aestivum); assay: Test B pre-/postemergence; set-up: key: 0 is no effect; 10 is complete control
In short: as §2

[7] = test system: pigweed (Amaranthus retroflexus); assay: Test B pre-/postemergence; set-up: key: 0 is no effect; 10 is complete control
In short: as §2

soybean (Glycine max) = assay: Test B pre-/postemergence; set-up: key: 0 is no effect; 10 is complete control
In short: as §2

[8] = test system: purple nutsedge (Cyperus rotundus); assay: Test B pre-/postemergence; set-up: key: 0 is no effect; 10 is complete control
In short: as §2

[9] = test system: crabgrass (Digitaria sanguinalis); assay: Test B pre-/postemergence; set-up: key: 0 is no effect; 10 is complete control; settings: for Crabgrass plant response rating: Preemergence
In short: as §2

rape (Brassica napus) = assay: Test B pre-/postemergence; set-up: key: 0 is no effect; 10 is complete control
In short: as §2

[10] = test system: cocklebur (Xanthium strumarium); assay: Test B pre-/postemergence; set-up: key: 0 is no effect; 10 is complete control; settings: for Cocklebur plant response rating: Preemergence
In short: as §2

[11] = test system: sugar beet (Beta vulgaris); assay: Test B pre-/postemergence; set-up: key: 0 is no effect; 10 is complete control
In short: as §2

[12] = Rate 62 g/ha, Postemergence (flood test)
[13] = Rate 250 g/ha, Postemergence (flood test species)
[14] = Rate 125 g/ha, Postemergence, flood test
[15] = Rate 250 g/ha, Postemergence (so in the source)

Cc1cnc(-n2cnc(C(F)(F)F)c2)nc1Cc1cccc(C(F)(F)F)c1 [Compound 44]
Plant response rating, S. Flatsedge [1, 12]: 9
S. Flatsedge plant response rating [1]: 9
Plant response rating, S. Flatsedge [1, 13]: 9
Plant response rating, Ducksalad [2, 12]: 4
Plant response rating, Ducksalad [2, 14]: 7
Plant response rating, Ducksalad [2, 13]: 9
Plant response rating, Rice (rice (Oryza sativa); [12]): 5
Rice plant response rating (rice (Oryza sativa)): 6
Plant response rating, Rice (rice (Oryza sativa); [13]): 7
Plant response rating, Barnyardgrass [3, 12]: 3
Plant response rating, Barnyardgrass [3, 14]: 4
Plant response rating, Barnyardgrass [3, 13]: 4
Plant response rating, Blackgrass ([4]; Rate 62 g/ha, Postemergence): 4
Blackgrass plant response rating ([4]; Rate 62 g/ha): 5
Plant response rating, Blackgrass ([4]; Rate 125 g/ha, Postemergence): 5
Blackgrass plant response rating ([4]; Rate 125 g/ha): 6
Plant response rating, Blackgrass ([4]; Rate 250 g/ha, Postemergence): 7
Plant response rating, Blackgrass [4, 15]: 9
Plant response rating, Corn (corn (Zea mays); Rate 62 g/ha, Postemergence): 3
Corn plant response rating (corn (Zea mays); Rate 62 g/ha): 0
Plant response rating, Corn (corn (Zea mays); Rate 125 g/ha, Postemergence): 3
Corn plant response rating (corn (Zea mays); Rate 125 g/ha): 1
Plant response rating, Corn (corn (Zea mays); Rate 250 g/ha, Postemergence): 3
Plant response rating, Corn (corn (Zea mays); [15]): 1
Plant response rating, Velvetleaf ([5]; Rate 62 g/ha, Postemergence): 8
Velvetleaf plant response rating ([5]; Rate 62 g/ha, Preemergence): 8
Velvetleaf plant response rating ([5]; Rate 125 g/ha, Postemergence): 8
Plant response rating, Velvetleaf ([5]; Rate 125 g/ha, Preemergence): 10
Plant response rating, Velvetleaf ([5]; Rate 250 g/ha, Postemergence): 9
Plant response rating, Velvetleaf [5, 15]: 10
Wheat plant response rating ([6]; Rate 62 g/ha, Postemergence): 3
Wheat plant response rating ([6]; Rate 62 g/ha, Preemergence): 0
Wheat plant response rating ([6]; Rate 125 g/ha, Postemergence): 3
Plant response rating, Wheat ([6]; Rate 125 g/ha, Preemergence): 1
Plant response rating, Wheat ([6]; Rate 250 g/ha, Postemergence): 3
Plant response rating, Wheat [6, 15]: 3
Plant response rating, Redroot pigweed ([7]; Rate 62 g/ha, Postemergence): 9
Redroot pigweed plant response rating ([7]; Rate 62 g/ha, Preemergence): 7
Redroot pigweed plant response rating ([7]; Rate 125 g/ha, Postemergence): 10
Redroot pigweed plant response rating ([7]; Rate 125 g/ha, Preemergence): 9
Plant response rating, Redroot pigweed ([7]; Rate 250 g/ha, Postemergence): 10
Plant response rating, Redroot pigweed [7, 15]: 10
Plant response rating, Soybean (soybean (Glycine max); Rate 62 g/ha, Postemergence): 5
Soybean plant response rating (soybean (Glycine max); Rate 62 g/ha, Preemergence): 0
Soybean plant response rating (soybean (Glycine max); Rate 125 g/ha, Postemergence): 6
Plant response rating, Soybean (soybean (Glycine max); Rate 125 g/ha, Preemergence): 2
Plant response rating, Soybean (soybean (Glycine max); Rate 250 g/ha, Postemergence): 6
Plant response rating, Soybean (soybean (Glycine max); [15]): 2
Plant response rating, Nutsedge ([8]; Rate 62 g/ha, Postemergence): 1
Nutsedge plant response rating ([8]; Rate 62 g/ha, Preemergence): 2
Nutsedge plant response rating ([8]; Rate 125 g/ha, Postemergence): 2
Plant response rating, Nutsedge ([8]; Rate 250 g/ha, Postemergence): 3
Plant response rating, Crabgrass ([9]; Rate 62 g/ha, Postemergence): 3
Crabgrass plant response rating ([9]; Rate 62 g/ha): 4
Plant response rating, Crabgrass ([9]; Rate 125 g/ha, Postemergence): 4
Crabgrass plant response rating ([9]; Rate 125 g/ha): 4
Plant response rating, Crabgrass ([9]; Rate 250 g/ha, Postemergence): 7
Plant response rating, Crabgrass [9, 15]: 9
Plant response rating, Rape (rape (Brassica napus); Rate 62 g/ha, Postemergence): 9
Rape plant response rating (rape (Brassica napus); Rate 62 g/ha, Preemergence): 4
Rape plant response rating (rape (Brassica napus); Rate 125 g/ha, Postemergence): 10
Rape plant response rating (rape (Brassica napus); Rate 125 g/ha, Preemergence): 8
Plant response rating, Rape (rape (Brassica napus); Rate 250 g/ha, Postemergence): 10
Plant response rating, Rape (rape (Brassica napus); [15]): 10
Plant response rating, Cocklebur ([10]; Rate 62 g/ha, Postemergence): 8
Cocklebur plant response rating ([10]; Rate 62 g/ha): 2
Plant response rating, Cocklebur ([10]; Rate 125 g/ha, Postemergence): 9
Cocklebur plant response rating ([10]; Rate 125 g/ha): 5
Plant response rating, Cocklebur ([10]; Rate 250 g/ha, Postemergence): 9
Plant response rating, Cocklebur [10, 15]: 8
Plant response rating, Sugarbeets ([11]; Rate 62 g/ha, Postemergence): 10
Sugarbeets plant response rating ([11]; Rate 62 g/ha, Preemergence): 9
Sugarbeets plant response rating ([11]; Rate 125 g/ha, Postemergence): 10
Plant response rating, Sugarbeets ([11]; Rate 125 g/ha, Preemergence): 10
Plant response rating, Sugarbeets ([11]; Rate 250 g/ha, Postemergence): 10
Plant response rating, Sugarbeets [11, 15]: 10

CCc1cnc(-n2ccc(C(F)(F)F)n2)nc1Cc1cccc(C(F)(F)F)c1 [Compound 46]
Plant response rating, S. Flatsedge [1, 12]: 4
S. Flatsedge plant response rating [1]: 5
Plant response rating, S. Flatsedge [1, 13]: 7
Plant response rating, Ducksalad [2, 12]: 1
Plant response rating, Ducksalad [2, 14]: 1
Plant response rating, Ducksalad [2, 13]: 4
Plant response rating, Rice (rice (Oryza sativa); [12]): 1
Rice plant response rating (rice (Oryza sativa)): 2
Plant response rating, Rice (rice (Oryza sativa); [13]): 4
Plant response rating, Barnyardgrass [3, 12]: 2
Plant response rating, Barnyardgrass [3, 14]: 3
Plant response rating, Barnyardgrass [3, 13]: 4
Plant response rating, Blackgrass ([4]; Rate 62 g/ha, Postemergence): 4
Blackgrass plant response rating ([4]; Rate 62 g/ha): 8
Plant response rating, Blackgrass ([4]; Rate 125 g/ha, Postemergence): 5
Blackgrass plant response rating ([4]; Rate 125 g/ha): 8
Plant response rating, Blackgrass ([4]; Rate 250 g/ha, Postemergence): 6
Plant response rating, Blackgrass [4, 15]: 10
Plant response rating, Corn (corn (Zea mays); Rate 62 g/ha, Postemergence): 2
Corn plant response rating (corn (Zea mays); Rate 62 g/ha): 0
Plant response rating, Corn (corn (Zea mays); Rate 125 g/ha, Postemergence): 2
Corn plant response rating (corn (Zea mays); Rate 125 g/ha): 1
Plant response rating, Corn (corn (Zea mays); Rate 250 g/ha, Postemergence): 3
Plant response rating, Corn (corn (Zea mays); [15]): 3
Plant response rating, Velvetleaf ([5]; Rate 62 g/ha, Postemergence): 9
Velvetleaf plant response rating ([5]; Rate 62 g/ha, Preemergence): 10
Velvetleaf plant response rating ([5]; Rate 125 g/ha, Postemergence): 9
Plant response rating, Velvetleaf ([5]; Rate 125 g/ha, Preemergence): 10
Plant response rating, Velvetleaf ([5]; Rate 250 g/ha, Postemergence): 9
Plant response rating, Velvetleaf [5, 15]: 10
Wheat plant response rating ([6]; Rate 62 g/ha, Postemergence): 3
Wheat plant response rating ([6]; Rate 62 g/ha, Preemergence): 1
Wheat plant response rating ([6]; Rate 125 g/ha, Postemergence): 3
Plant response rating, Wheat ([6]; Rate 125 g/ha, Preemergence): 3
Plant response rating, Wheat ([6]; Rate 250 g/ha, Postemergence): 4
Plant response rating, Wheat [6, 15]: 5
Plant response rating, Redroot pigweed ([7]; Rate 62 g/ha, Postemergence): 9
Redroot pigweed plant response rating ([7]; Rate 62 g/ha, Preemergence): 10
Redroot pigweed plant response rating ([7]; Rate 125 g/ha, Postemergence): 9
Redroot pigweed plant response rating ([7]; Rate 125 g/ha, Preemergence): 10
Plant response rating, Redroot pigweed ([7]; Rate 250 g/ha, Postemergence): 10
Plant response rating, Redroot pigweed [7, 15]: 10
Plant response rating, Soybean (soybean (Glycine max); Rate 62 g/ha, Postemergence): 8
Soybean plant response rating (soybean (Glycine max); Rate 62 g/ha, Preemergence): 1
Soybean plant response rating (soybean (Glycine max); Rate 125 g/ha, Postemergence): 8
Plant response rating, Soybean (soybean (Glycine max); Rate 125 g/ha, Preemergence): 3
Plant response rating, Soybean (soybean (Glycine max); Rate 250 g/ha, Postemergence): 9
Plant response rating, Soybean (soybean (Glycine max); [15]): 7
Plant response rating, Nutsedge ([8]; Rate 62 g/ha, Postemergence): 2
Nutsedge plant response rating ([8]; Rate 125 g/ha, Preemergence): 0
Plant response rating, Nutsedge [8, 15]: 0
Plant response rating, Crabgrass ([9]; Rate 62 g/ha, Postemergence): 6
Crabgrass plant response rating ([9]; Rate 62 g/ha): 9
Plant response rating, Crabgrass ([9]; Rate 125 g/ha, Postemergence): 6
Crabgrass plant response rating ([9]; Rate 125 g/ha): 9
Plant response rating, Crabgrass ([9]; Rate 250 g/ha, Postemergence): 8
Plant response rating, Crabgrass [9, 15]: 10
Plant response rating, Rape (rape (Brassica napus); Rate 62 g/ha, Postemergence): 9
Rape plant response rating (rape (Brassica napus); Rate 62 g/ha, Preemergence): 9
Rape plant response rating (rape (Brassica napus); Rate 125 g/ha, Postemergence): 9
Rape plant response rating (rape (Brassica napus); Rate 125 g/ha, Preemergence): 9
Plant response rating, Rape (rape (Brassica napus); Rate 250 g/ha, Postemergence): 9
Plant response rating, Rape (rape (Brassica napus); [15]): 10
Plant response rating, Cocklebur ([10]; Rate 62 g/ha, Postemergence): 8
Cocklebur plant response rating ([10]; Rate 62 g/ha): 10
Plant response rating, Cocklebur ([10]; Rate 125 g/ha, Postemergence): 9
Plant response rating, Cocklebur ([10]; Rate 250 g/ha, Postemergence): 9
Plant response rating, Sugarbeets ([11]; Rate 62 g/ha, Postemergence): 10
Sugarbeets plant response rating ([11]; Rate 62 g/ha, Preemergence): 10
Sugarbeets plant response rating ([11]; Rate 125 g/ha, Postemergence): 10
Plant response rating, Sugarbeets ([11]; Rate 125 g/ha, Preemergence): 10
Plant response rating, Sugarbeets ([11]; Rate 250 g/ha, Postemergence): 10
Plant response rating, Sugarbeets [11, 15]: 10
